Measurements published in patent US5886178A, “3-aroylbenzylpyridazinone derivatives” (Syntex (U.S.A.) Inc., priority 1997, dated 1999).

Assays:
[1] = Acetic Acid-induced Rat Writhing Assay (analgesic activity); type: in vivo; details: 10 mg/Kg, oral, male Sprague Dawley rats
From the text: The analgesic activity of compounds of this invention may be determined by the Acetic Acid-induced Rat Writhing Assay, using a modification of the method described in Berkenkopf, J. W. and Weichman, B. M. "Production of Prostacyclin in Mice following Intraperitoneal Injection of Acetic Acid, Phenylbenzoquinone and Zymosan: Its Role in the Writhing Response". Prostaglandins: 36: 693-70 (1988). This assay is one of several acute assays which have been used to assess the analgesic activity of NSAIDs, and is considered predictive of human efficacy. The test materials were administered orally to male Sprague Dawley rats in a volume of 1 ml/100 g body weight as solutions or suspensions in an aqueous vehicle containing 0.9% NaCl, 0.5% sodium carboxymethyl-cellulose, 0.4% polysorbate 80, 0.9% benzyl alcohol and 97.3% water. Control rats received vehicle alone. One hour after compound administration, 0.3 ml/100 g body weight of 0.75% solution of acetic acid was injected intraperitoneally. The acetic acid injection induces a series of characteristic writhing responses, which were counted over the period between 15 and 30 minutes after the injection. The analgesic activity of test materials is expressed as the percentage inhibition of writhing in the test group relative to the control group.

[2] = biological target: T1, COX I (Homo sapiens, UniProt P23219); assay: Inhibition of COX I in a cell based assay (human promonocytic THP cells, TXB2 ELISA); set-up: endogenous in cells; host or cells: human promonocytic THP cells, PMA-treated
T1 sequence (P23219 24-599): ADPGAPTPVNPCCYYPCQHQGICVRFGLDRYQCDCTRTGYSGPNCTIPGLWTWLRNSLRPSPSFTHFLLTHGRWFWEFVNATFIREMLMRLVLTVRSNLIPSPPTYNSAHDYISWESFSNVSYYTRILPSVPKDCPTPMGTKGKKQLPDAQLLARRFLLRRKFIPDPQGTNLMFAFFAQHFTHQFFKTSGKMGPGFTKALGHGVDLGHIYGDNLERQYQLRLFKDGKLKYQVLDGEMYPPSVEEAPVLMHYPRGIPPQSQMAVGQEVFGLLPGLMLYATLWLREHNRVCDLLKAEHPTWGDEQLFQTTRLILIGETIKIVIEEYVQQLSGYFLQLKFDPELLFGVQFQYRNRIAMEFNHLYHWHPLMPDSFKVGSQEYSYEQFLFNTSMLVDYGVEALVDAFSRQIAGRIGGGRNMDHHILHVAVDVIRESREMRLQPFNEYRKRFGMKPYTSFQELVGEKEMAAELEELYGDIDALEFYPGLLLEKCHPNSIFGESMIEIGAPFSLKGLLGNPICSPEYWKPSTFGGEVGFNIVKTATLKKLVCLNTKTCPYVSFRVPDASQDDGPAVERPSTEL
Experimental: The COX I and COX II inhibitory activity of compounds of this invention in a cell based assay was determined as described below.
The inhibitory activity of the test compounds against cell associated COX-1 was measured using human promonocytic THP cells. Cells were plated in 96-well microtiter plates at a density of 8×10^4 cells/well in RPMI-1640 medium (Gibco). COX-1 activity was initiated by incubating the cells with 0.1μM phorbol 12-myristate 13-acetate (PMA, Sigma) in dimethyl sulfoxide (DMSO, Aldrich) at 37° C. After 40-48 hours, the medium was removed, and the cells were washed twice with phosphate buffered saline (PBS, Gibco). 225 μl/well of fresh medium containing desired concentrations of the test compounds in DMSO, or the carrier vehicles (control wells), was added and the cells incubated at 37° C. for 30 minutes; after which 5 μM calcium ionophore A23187 (Sigma) was added and the incubation was continued for an additional 10 minutes. The reaction was terminated by transferring the plates to ice. The culture supernatants were transferred and appropriately diluted and the amount of thromboxane B2 (TXB2) present in each supernatant was quantitated using an ELISA kit (Cayman Chemicals).
The COX I and COX II inhibitory activities in the cell based assay (expressed as IC50) of some compounds of the invention were: […]

[3] = biological target: T1, COX I; assay: Inhibition of COX I in vitro, partially purified enzyme, radiometric assay; type: biochemical; set-up: made in house; details: 20 micromolar arachidonic acid
Experimental: (§1) The COX I and COX II inhibitory activity of compounds of this invention in vitro was determined using partially purified COX I and COX II enzymes, prepared as described in J. Barnett et al, Biochim. Biophys.
(§2) COX I and COX II samples were diluted with Tris-HCl buffer (50 mM Tris-HCl, pH 7.9) containing 2 mM EDTA and 10% glycerol and reconstituted by incubating first with 2 mM phenol for 5 minutes and then with 1 micromolar hematin for an additional 5 minutes. 125 μl of the reconstituted COX I or COX II enzyme were preincubated for 10 minutes at room temperature in a shaking water bath with the compounds of the invention dissolved in 2-15 μl of DMSO or the carrier vehicles (control samples). The enzyme reaction was initiated by adding 25 μl of 1-[14C]arachidonic acid (80,000-100,000 cpm/tube; 20 micromolar final concentration) and the reaction was allowed to continue for an additional 45 seconds. The reaction was terminated by adding 100 μl of 2N HCl and 750 μl water. An aliquot (950 μl) of the reaction mixture was loaded onto a 1 ml C18 Sep-Pak column (J. T. Baker, Phillipsburg, N.J.) which had been previously washed with 2-3 ml methanol and equilibrated with 5-6 ml distilled water. Oxygenated products were quantitatively eluted with 3 ml of acetonitrile/water/acetic acid (50:50:0.1, v/v) and the radioactivity in the eluate determined in a scintillation counter.

[4] = biological target: T2, COX II (Homo sapiens, UniProt P35354); assay: Inhibition of COX II in vitro, partially purified enzyme, radiometric assay; type: biochemical; set-up: made in house; details: 20 micromolar arachidonic acid
T2 sequence (P35354 18-604): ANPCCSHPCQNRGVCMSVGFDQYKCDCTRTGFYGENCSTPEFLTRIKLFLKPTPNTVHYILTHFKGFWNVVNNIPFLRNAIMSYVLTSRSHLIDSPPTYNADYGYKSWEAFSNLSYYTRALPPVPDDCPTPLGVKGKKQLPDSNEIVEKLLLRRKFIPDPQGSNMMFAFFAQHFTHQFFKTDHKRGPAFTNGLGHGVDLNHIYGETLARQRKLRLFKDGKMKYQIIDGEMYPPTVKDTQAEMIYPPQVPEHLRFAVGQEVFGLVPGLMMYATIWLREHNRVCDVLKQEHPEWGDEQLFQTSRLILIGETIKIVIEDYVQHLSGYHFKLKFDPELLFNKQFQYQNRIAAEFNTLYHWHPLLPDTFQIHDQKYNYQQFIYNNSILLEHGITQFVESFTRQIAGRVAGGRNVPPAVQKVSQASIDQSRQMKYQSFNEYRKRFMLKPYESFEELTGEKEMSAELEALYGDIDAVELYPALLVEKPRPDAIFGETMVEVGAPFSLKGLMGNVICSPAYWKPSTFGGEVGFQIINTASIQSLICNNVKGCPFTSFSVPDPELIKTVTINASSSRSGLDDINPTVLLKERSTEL
Experimental: as §1, §2

Question: With `COc1ccc(C(=O)c2cccc(Cc3ccc(=O)[nH]n3)c2C)cc1` [Cpd 11, 6-[3-(4-methoxybenzoyl)-2-methylbenzyl]-2H-pyridazin-3-one] as the compound, how does the “% inhibition of writhing responses” value [1] read?
Answer: Its value is 10%.

Question: What about the IC50 [2] of the same compound?
Answer: Its IC50 is 4.8 µM.

Question: And the IC50 [3]?
Answer: The IC50 was 391 µM.

Question: And the IC50 [4]?
Answer: Its IC50 is 1.8 µM.
